The results in this text go back to patent publication US5444042A, “Method of treatment of neurodegeneration with calpain inhibitors” (Cortex Pharmaceuticals, priority 1994, dated 1995).

The target of assay [1] is Cathepsin B (Bos taurus, UniProt P07688). The assay can be described thus: Kapp/[I] progress curve method, Cathepsin B (Table 1C). The assay is classed as biochemical, bovine. Particulars: CBZ-lys-4-nitrophenyl ester. As for the experimental part:
(§1) The Halo-Ketone Peptides, like the substituted isocoumarins, are irreversible inhibitors of Calpain. We determined the Kapp /[I] values for various members of this class of compounds against Calpains I and II. For comparison, we also determined these values against the additional thiol proteases Papain and Cathepsin B for at least one Halo-Ketone Peptide.
(§2) We assayed Calpain I and II using Suc-leu-tyr-amidomethylcoumarin. Papain was assayed using benzoyl-arg-4-nitroanilide, and Cathepsin B (bovine) was assayed using CBZ-lys-4-nitrophenyl ester. We followed the progress curve method of Tian and Tsou, Biochemistry, 21:1028-1032 (1982), the disclosure of which is hereby incorporated by reference, to derive kinetic data. Briefly, this method makes use of the equation: [formula] where [P.infin. ] represents the concentration of product formed at a time approaching infinity, A is the Kapp in the presence of substrate (S), K is the Michaelis constant and [Y] is the concentration of the inhibitor. Since [S] and [Y] are known and V and K can be determined, Kapp can be readily determined.

Assay [2] concerns Calpain II. The assay can be described thus: Kapp/[I] progress curve method, Calpain II (Table 1C). It counts as biochemical. To be noted: Rabbit Calpain II, Suc-leu-tyr-amidomethylcoumarin. Also on record: unit not given here. In short, it runs like this: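 Irreversible inactivation of calpains I and II followed with Suc-Leu-Tyr-AMC substrate; papain assayed with benzoyl-Arg-4-nitroanilide. Kapp derived by the Tian–Tsou progress-curve method from product formed at infinite time, known substrate and inhibitor concentrations, Vmax and Km; values reported as Kapp/[I].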

In assay [3] the target is T1, Papain (Carica papaya, UniProt P00784).
T1 sequence (P00784 134-345): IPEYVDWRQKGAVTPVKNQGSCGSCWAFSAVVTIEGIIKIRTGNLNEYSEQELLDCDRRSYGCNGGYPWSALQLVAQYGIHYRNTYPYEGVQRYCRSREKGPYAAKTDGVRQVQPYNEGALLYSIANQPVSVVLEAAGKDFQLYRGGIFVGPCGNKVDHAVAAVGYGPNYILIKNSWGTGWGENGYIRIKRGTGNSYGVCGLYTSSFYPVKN
The assay can be described thus: Kapp/[I] progress curve method, Papain (Table 1C). It counts as biochemical. Particulars: benzoyl-arg-4-nitroanilide. As for the experimental part: as §1, §2

The test system of assay [4] is gerbils subjected to transient ischemia. The experiment in a line: Transient ischemia in gerbils, neuronal loss in CA1 (Example 3A). The assay is classed as in vivo, gerbil. To be noted: leupeptin 20 mg/ml intracerebroventricular perfusion 3 days before 10 min ischemia; 14 days later. As for the experimental part: A small cannula was implanted in the right lateral ventricle of adult gerbils, and secured to the skull with dental cement. An Alzet micro-osmotic pump was attached to the cannula for intracerebroventricular perfusion. The pump was filled with either saline alone (control) or leupeptin (20 mg/ml in saline). After three days perfusion with either the control solution or with the leupeptin solution, transient ischemia was induced by bilaterally clamping the carotid arteries for a period of ten minutes. […] Fourteen days later, the animals were sacrificed by Nembutal overdose and transcardial perfusion of a 10% solution of paraformaldehyde in PBS. Coronal sections of the brain were stained with cresyl violet and were examined for the extent of neuronal loss.

Where a SMILES comes first, the peptide text is derived from it. The star is where a group is joined. Boc = CC(C)(C)OC(=O)*; CH2Cl = ClC*

For the molecule `CC(C)CC(NC(=O)CNC(=O)OC(C)(C)C)C(=O)NC(Cc1ccccc1)C(=O)CCl` (stereo not drawn) [Boc-Gly-Leu-Phe-CH2 Cl] (Boc-Gly-Leu-Phe-CH2Cl; configuration not given here), the “Kapp/[I] CB” value in assay [1] came to 290000. The “Kapp/[I] CII” value in assay [2] is 902000. Further, the “Kapp/[I] P” value in assay [3] is on record as 540000.

Take `CC(=O)N[C@@H](CC(C)C)C(=O)N[C@@H](CC(C)C)C(=O)N[C@H](C=O)CCCNC(=N)N` [Leupeptin, Ac-Leu-Leu-Arg-H, reference compound]: the “loss of neurons in CA1 field” value in assay [4] stood at 15%.
